# Data: patent US20110112151A1, “COMPOUND CAPABLE OF INHIBITING 11-BETA HYDROXYSTERIOD DEHYDROGENASE” (priority 2008, published 2011)
# Molecular target: T1, 11β-HSD1 (Homo sapiens, UniProt P28845)
# T1 construct: expressed in transfected cells; host or cells: HEK 293 (stably transfected, HEK 293/HSD11B1)
# Test: 11β-HSD1 HEK assay (cell based assay, SPA)
# Details: HEK293, read-out: Activity (inhibition of 11β-HSD1)
# Protocol: 11β-HSD1 HEK Assay Protocol (Cell Based Assay)
# 11β-HSD1 activity is measured in whole HEK 293 cells stably transfected with the HSD11B1 gene. Cells are incubated in 96-well microplates in the presence of tritiated substrate. Enzyme activity is determined by measuring the amount of tritated product by scintillation proximity assay (SPA). Assay plates contain internal high and low controls to allow calculation of percentage inhibition.
# 1. […] 2. When the cells are 80% confluent the medium is removed from each well. 100 μl fresh, serum-free, medium containing ^3H-cortisone and test compound in 1% DMSO is added to each well*. Control wells are also dispensed. […] 3. The plate is incubated at 37° C. for the required time period. 4. 50 μl of media is removed from each well and transferred to a microplate containing 100 μl of a pre-incubated mixture of anti-cortisol antibody and SPA bead. The mixture is incubated with gentle shaking until equilibrium is reached, before transferring to a scintillation counter to establish the enzyme activity in each sample.
# 10 μl of compound is dispensed into each well of a 96-well microplate in 10% DMSO at 100 μM concentration. 90 μl media containing ^3H-cortisone is added to each well. The compound/media/substrate mixture is then transferred to the assay plate containing the cells. […]
# T1 sequence (P28845 whole entry): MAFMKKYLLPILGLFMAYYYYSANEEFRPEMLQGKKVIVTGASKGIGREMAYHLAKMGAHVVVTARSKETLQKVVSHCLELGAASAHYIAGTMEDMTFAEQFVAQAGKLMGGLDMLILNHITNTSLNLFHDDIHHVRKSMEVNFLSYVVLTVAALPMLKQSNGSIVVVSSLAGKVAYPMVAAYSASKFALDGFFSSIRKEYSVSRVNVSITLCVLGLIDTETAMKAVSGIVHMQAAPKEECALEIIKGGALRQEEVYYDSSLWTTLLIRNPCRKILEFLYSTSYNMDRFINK
row,Structure (SMILES),inhibition at 1 µM
1,"Cc1nnc(S(=O)(=O)CC(=O)C23CC4CC(CC(C4)C2)C3)s1 [Example 79, 1-Adamantan-1-yl-2-(5-methyl-[1,3,4]thiadiazole-2-sulfonyl)-ethanone]",> 60%

# Same assay, conditions: HEK293; at 1 μM; whole HEK 293 cells stably transfected with the HSD11B1 gene, 3H-cortisone substrate; read-out: Activity (inhibition of 11β-HSD1)
row,inhibition at 1 µM,Structure (SMILES)
1,> 60%,"O=C(CS(=O)(=O)Cc1cccnc1)C12CC3CC(CC(C3)C1)C2 [Example 9, 1-Adamantan-1-yl-2-(pyridin-3-ylmethanesulfonyl)-ethanone]"
2,< 20%,"Cc1cc(C)c(C(=O)COc2cccnc2)c(C)c1 [Example 72, 2-(Pyridin-3-yloxy)-1-(2,4,6-trimethyl-phenyl)-ethanone]"
3,< 20%,"Cc1cc(C)c(C(=O)C[S+]([O-])c2ccccn2)c(C)c1 (stereo not shown) [Example 82, 1-mesityl-2-(pyridin-2-ylsulfinyl)ethanone]"
4,> 60%,"NC(=O)c1ccc(SCC(=O)C23CC4CC(CC(C4)C2)C3)nc1 [Example 37, 6-(2-Adamantan-1-yl-2-oxo-ethylsulfanyl)-nicotinamide]"
5,< 20%,"Cc1cc(C)c(C(=O)CS(=O)(=O)c2ccccn2)c(C)c1 [Example 75, 2-(Pyridine-2-sulfonyl)-1-(2,4,6-trimethyl-phenyl)-ethanone]"
6,20 to 60%,"Cn1ccnc1SCC(=O)C1(c2ccc(Cl)cc2)CCC1 [Example 21, 1-[1-(4-Chloro-phenyl)-cyclobutyl]-2-(1-methyl-1H-imidazol-2-ylsulfanyl)-ethanone]"
7,20 to 60%,"Cn1ccnc1SCC(=O)C1(c2ccc(Cl)cc2)CCCCC1 [Example 40, 1-[1-(4-Chloro-phenyl)-cyclohexyl]-2-(1-methyl-1H-imidazol-2-ylsulfanyl)-ethanone]"
8,20 to 60%,"O=C(COc1cccc(Cl)n1)C12CC3CC(CC(C3)C1)C2 [Example 58, 1-Adamantan-1-yl-2-(6-chloro-pyridin-2-yloxy)-ethanone]"
9,< 20%,"Cn1ccnc1S(=O)(=O)CC(=O)C1(c2ccc(Cl)cc2)CCC1 [Example 24, 1-[1-(4-Chloro-phenyl)-cyclobutyl]-2-(1-methyl-1H-imidazole-2-sulfonyl)-ethanone]"
10,< 20%,"Cn1cnnc1[S+]([O-])CC(=O)C1(c2ccc(Cl)cc2)CCC1 (stereo not shown) [Example 109, 1-(1-(4-Chlorophenyl)cyclobutyl)-2-(4-methyl-4H-1,2,4-triazol-3-ylsulfinyl)ethanone]"
11,< 20%,"Cc1cc(C)c(C(=O)COc2ccc(C)nc2)c(C)c1 [Example 70, 2-(6-Methyl-pyridin-3-yloxy)-1-(2,4,6-trimethyl-phenyl)-ethanone]"
12,20 to 60%,"O=C(C[S+]([O-])c1ccccn1)C1(c2ccc(Cl)cc2)CC1 (stereo not shown) [Example 5, 1-[1-(4-Chloro-phenyl)-cyclopropyl]-2-(pyridine-2-sulfinyl)-ethanone]"
13,20 to 60%,"Cn1cnnc1SCC(=O)C1(c2ccc(Cl)cc2)CC1 [Example 100, 1-(1-(4-Chlorophenyl)cyclopropyl)-2-(4-methyl-4H-1,2,4-triazol-3-ylthio)ethanone]"
14,> 60%,"Cc1cccc(S(=O)(=O)CC(=O)C23CC4CC(CC(C4)C2)C3)n1 [Example 30, 1-(adamantan-1-yl)-2-[(6-methylpyridine-2-)sulfonyl]ethan-1-one]"
15,20 to 60%,"O=C(CSCc1ccc(C(F)(F)F)nc1)C12CC3CC(CC(C3)C1)C2 [Example 59, 1-Adamantan-1-yl-2-(6-trifluoromethyl-pyridin-3-ylmethylsulfanyl)-ethanone]"
16,> 60%,"COc1ccncc1COCC(=O)C12CC3CC(CC(C3)C1)C2 [Example 85, 2-((4-methoxypyridin-3-yl)methoxy)-1-adamantylethanone]"
17,> 60%,"Cc1nnc([S+]([O-])CC(=O)C23CC4CC(CC(C4)C2)C3)s1 (stereo not shown) [Example 80, 1-Adamantan-1-yl-2-(5-methyl-[1,3,4]thiadiazole-2-sulfinyl)-ethanone]"
18,> 60%,"O=C(CSc1ccccn1)C12CC3CC(CC(C3)C1)C2 [Example 12, 1-Adamantan-1-yl-2-(pyridin-2-ylsulfanyl)-ethanone]"
19,< 20%,"O=C(CSc1ccccn1)C1(c2ccc(Cl)cc2)CC1 [Example 4, 1-[1-(4-Chloro-phenyl)-cyclopropyl]-2-(pyridin-2-ylsulfanyl)-ethanone]"
20,> 60%,"Cc1ccc(OCC(=O)C(C)(C)c2ccc(Cl)cc2)cn1 [Example 71, 3-(4-Chloro-phenyl)-3-methyl-1-(6-methyl-pyridin-3-yloxy)-butan-2-one]"
21,> 60%,"COc1cncc(COCC(=O)C23CC4CC(CC(C4)C2)C3)c1 [Example 98, 1-Adamantan-1-yl-2-(5-methoxy-pyridin-3-ylmethoxy)-ethanone]"

row,inhibition at 1 µM,Structure (SMILES)
1,> 60%,"O=C(CS(=O)(=O)Cc1ccncc1)C12CC3CC(CC(C3)C1)C2 [Example 83, 1-Adamantan-1-yl-2-(pyridin-4-ylmethanesulfonyl)-ethanone]"
2,> 60%,"Cn1ccnc1SCC(=O)C1(c2ccc(Cl)cc2)CC1 [Example 1, 1-[1-(4-Chloro-phenyl)-cyclopropyl]-2-(1-methyl-1H-imidazol-2-ylsulfanyl)-ethanone]"
3,< 20%,O=C(CS(=O)(=O)c1ccccn1)C1(c2ccc(Cl)cc2)CCC1 [Example 22]
4,< 20%,"Cc1cc(C)c(C(=O)CSc2nccn2C)c(C)c1 [Example 74, 2-(1-Methyl-1H-imidazol-2-ylsulfanyl)-1-(2,4,6-trimethyl-phenyl)-ethanone]"
5,< 20%,"Cn1ccnc1[S+]([O-])CC(=O)C1(c2ccc(Cl)cc2)CCC1 (stereo not shown) [Example 25, 1-[1-(4-Chloro-phenyl)-cyclobutyl]-2-(1-methyl-1H-imidazole-2-sulfinyl)-ethanone]"
6,> 60%,"O=C(C[S+]([O-])Cc1ccc(Cl)nc1)C12CC3CC(CC(C3)C1)C2 (stereo not shown) [Example 65, 1-Adamantan-1-yl-2-(6-chloro-pyridin-3-ylmethanesulfinyl)-ethanone]"
7,20 to 60%,"O=C(CS(=O)(=O)Cc1ccc(C(F)(F)F)nc1)C12CC3CC(CC(C3)C1)C2 [Example 69, 1-Adamantan-1-yl-2-(6-trifluoromethyl-pyridin-3-ylmethanesulfonyl)-ethanone]"
8,20 to 60%,"O=C(COc1ccc(C(F)(F)F)cn1)C12CC3CC(CC(C3)C1)C2 [Example 55, 1-Adamantan-1-yl-2-(5-trifluoromethyl-pyridin-2-yloxy)-ethanone]"
9,< 20%,"O=C(COCc1ccccn1)C1(c2ccc(Cl)cc2)CCC1 [Example 42, 1-[1-(4-Chloro-phenyl)-cyclobutyl]-2-(pyridin-2-ylmethoxy)-ethanone]"
10,20 to 60%,"Cn1cnnc1SCC(=O)C1(c2ccc(Cl)cc2)CCC1 [Example 108, 1-(1-(4-Chlorophenyl)cyclobutyl)-2-(4-methyl-4H-1,2,4-triazol-3-ylthio)ethanone]"
11,> 60%,"O=C(CSCc1ccncc1)C12CC3CC(CC(C3)C1)C2 [Example 81, 1-Adamantan-1-yl-2-(pyridin-4-ylmethylsulfanyl)-ethanone]"
12,> 60%,"CC(=O)Nc1nnc(S(=O)(=O)CC(=O)C23CC4CC(CC(C4)C2)C3)s1 [Example 93, N-(5-{[2-(Adamantan-1-yl)-2-oxoethane]sulfonyl}-1,3,4-thiadiazol-2-yl)acetamide]"
13,> 60%,"O=C(C[S+]([O-])c1ccncc1)C12CC3CC(CC(C3)C1)C2 (stereo not shown) [Example 33, 1-(adamantan-1-yl)-2-(pyridine-4-sulfinyl)ethan-1-one]"
14,20 to 60%,"Cn1ccnc1S(=O)(=O)CC(=O)C1(c2ccc(Cl)cc2)CCCC1 [Example 43, 1-[1-(4-Chloro-phenyl)-cyclopentyl]-2-(1-methyl-1H-imidazole-2-sulfonyl)-ethanone]"
15,> 60%,"COc1cccnc1COCC(=O)C12CC3CC(CC(C3)C1)C2 [Example 86, 2-((3-Methoxypyridin-2-yl)methoxy)-1-adamantylethanone]"
16,< 20%,"Cn1ccnc1S(=O)(=O)CC(=O)C1(c2ccc(Cl)cc2)CC1 [Example 3, 1-[1-(4-Chloro-phenyl)-cyclopropyl]-2-(1-methyl-1H-imidazole-2-sulfonyl)-ethanone]"
17,20 to 60%,"O=C(C[S+]([O-])c1ccc(C(F)(F)F)cn1)C12CC3CC(CC(C3)C1)C2 (stereo not shown) [Example 68, 1-Adamantan-1-yl-2-(5-trifluoromethyl-pyridine-2-sulfinyl)-ethanone]"
18,20 to 60%,"O=C(COCc1ccc(C(F)(F)F)nc1)C12CC3CC(CC(C3)C1)C2 [Example 56, 1-Adamantan-1-yl-2-(6-trifluoromethyl-pyridin-3-ylmethoxy)-ethanone]"
19,20 to 60%,"O=C(CS(=O)(=O)c1ccccn1)C1(c2ccc(Cl)cc2)CCCCC1 [Example 48, 1-[1-(4-Chloro-phenyl)-cyclohexyl]-2-(pyridine-2-sulfonyl)-ethanone]"
20,> 60%,"O=C(CS(=O)(=O)Cc1ccccn1)C12CC3CC(CC(C3)C1)C2 [Example 16, 1-Adamantan-1-yl-2-(pyridin-2-ylmethanesulfonyl)-ethanone]"
21,20 to 60%,"Cn1ccnc1[S+]([O-])CC(=O)C1(c2ccc(Cl)cc2)CCCC1 (stereo not shown) [Example 44, 1-[1-(4-Chloro-phenyl)-cyclopentyl]-2-(1-methyl-1H-imidazole-2-sulfinyl)-ethanone]"
